US20140113877A1, “NOVEL 3,4,4A,10B-TETRAHYDRO-1H-THIOPYRANO[4,3-C] ISOQUINOLINE COMPOUNDS” (Takeda GmbH, priority 2011, published 2014)
Like-named read-outs stand apart in the source and are kept apart here.

Experiments:
human PDE5 = target: T1, human PDE5 (Homo sapiens, UniProt O76074); experiment: Inhibition of PDE5 activity (SPA, [3H]cGMP, platelet lysate); assay type: biochemical; conditions: 0.5 μM cGMP, binned: below 8 / between 8 and 9, read-out: PDE5 inhibitory values measured as −logIC50 (converted)
T1 construct: from tissue; host or cells: human platelets from fresh donor blood (platelet lysate)
Procedure: As a source for human PDE5, platelets were used. For that purpose, 150 ml fresh blood from human donors anticoagulated with citrate [final concentration 0.3% (w/v)] was centrifuged at 200 g for 10 min to obtain the so-called platelet-rich-plasma (PRP) as a supernatant. 1/10 volume of ACD solution (85 mM Na3-citrate, 111 mM D-glucose, 71 mM citric acid, pH 4.4) was added to 9/10 volume of PRP. After centrifugation (1,400 g, 10 min) the cell pellet was resuspended in 3 ml homogenization buffer (NaCl 140 mM, KCl 3.8 mM, EGTA (ethylene glycol tetraacetic acid) 1 mM, MgCl2 1 mM, Tris-HCl 20 mM, beta-mercaptoethanol 1 mM, pH 8.2) plus protease-inhibitor mix resulting in final concentrations of 0.5 mM Pefablock (Roche), 10 μM Leupeptin, 5 μM Trypsine inhibitor, 2 mM Benzamidin and 10 μM Pepstatin A. The suspension was sonicated and thereafter centrifuged for 15 min at 10,000 g. The resulting supernatant (platelet lysate) was used for enzymatic assays.
PDE5 activities were measured in a 96-well platform using SPA (scintillation proximity assay) yttrium silicate beads (RPNQ1050 from GE Healthcare). In a first step the PDE activity operated hydrolysis of either [^3H] cGMP (substrate) into [^3H] 5′GMP. In a second step substrate and product were distinguished following addition of SPA yttrium silicate beads. Indeed, in the presence of zinc sulphate the linear [^3H] […] Close proximity of bound [^3H] […] The test volume was 100 μl and contained 20 mM Tris buffer (pH 7.4), 0.1 mg of BSA (bovine serum albumin)/ml, 5 mM Mg^2+, 1 μM motapizone (PDE3 Inhibitor), 10 nM PDE2 inhibitor 2-(3,4-dimethoxybenzyl)-7-[(1R,2R)-2-hydroxy-1-(2-phenylethyl)propyl]-5-methylimidazo[5,1-f][1,2,4]triazin-4(3H)-one, 0.5 μM cGMP (cyclic guanosine monophosphate) (including about 50,000 cpm of [3H]cGMP as a tracer) (substrate), 1 μl of the respective compound dilution in dimethylsulfoxide (DMSO) and sufficient PDE5-containing platelet lysat (10,000×g supernatant, see above) to ensure that 10-20% of the cGMP was converted under the said experimental conditions. […] After a preincubation of 5 min at 37° C., the reaction was commenced by adding the substrate (cGMP) and the assay was incubated for a further 15 min. The reaction was terminated by adding SPA beads (50 μl). In agreement with the manufacturer's instructions, the SPA beads had previously been resuspended in water, but were then diluted 1:3 (v/v) in water. This diluted solution also contained 3 mM 8-methoxymethyl-3-isobutyl-1-methylxanthine (IBMX) to ensure a complete block of PDE activity. Once the beads were sedimented (>30 min), the MTP's were analyzed in commercially available luminescence detection devices. The corresponding IC50 values of the compounds for inhibition of PDE activity were determined from the concentration-effect curves by means of non-linear regression.
For the following compounds PDE5 inhibitory values [measured as −logIC50 (mol/l)] below 8 and between 8 and 9 have been determined. The numbers of the compounds correspond to the numbers of the examples.

PDE4B1 = target: T2, PDE4B1 (Homo sapiens, UniProt Q07343); experiment: Inhibition of PDE4B1 activity (SPA, [3H]cAMP); assay type: biochemical; conditions: recombinant PDE4B1, 0.5 μM cAMP; binned: below 8 / between 8 and 9; read-out: PDE4B1 inhibitory values measured as −logIC50 (converted)
T2 construct: made in house; host or cells: SF21 insect cells (baculovirus; virus prepared in SF9 cells)
T2 sequence (Q07343 whole entry): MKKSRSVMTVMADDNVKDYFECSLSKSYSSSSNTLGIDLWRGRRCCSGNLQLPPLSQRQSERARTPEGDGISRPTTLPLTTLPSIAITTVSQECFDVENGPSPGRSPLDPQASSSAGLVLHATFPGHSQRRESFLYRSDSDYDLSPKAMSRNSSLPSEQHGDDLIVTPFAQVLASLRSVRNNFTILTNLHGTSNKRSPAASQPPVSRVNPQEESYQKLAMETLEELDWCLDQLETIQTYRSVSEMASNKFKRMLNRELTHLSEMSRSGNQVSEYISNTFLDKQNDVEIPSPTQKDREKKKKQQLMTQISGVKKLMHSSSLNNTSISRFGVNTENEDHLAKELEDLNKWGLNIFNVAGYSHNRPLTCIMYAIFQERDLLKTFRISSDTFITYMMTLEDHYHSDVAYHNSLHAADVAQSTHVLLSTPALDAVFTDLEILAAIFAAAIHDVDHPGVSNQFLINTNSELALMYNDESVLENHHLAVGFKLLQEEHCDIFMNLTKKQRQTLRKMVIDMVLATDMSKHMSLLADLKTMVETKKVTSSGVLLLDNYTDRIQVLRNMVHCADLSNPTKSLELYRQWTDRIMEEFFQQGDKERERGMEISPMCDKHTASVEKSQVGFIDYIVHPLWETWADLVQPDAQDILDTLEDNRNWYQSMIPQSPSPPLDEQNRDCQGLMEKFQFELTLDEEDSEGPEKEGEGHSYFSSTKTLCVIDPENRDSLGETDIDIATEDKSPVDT
Procedure: The PDE4B1 (GB no. L20966) was a gift of Prof. M. Conti (Stanford University, USA). It was amplified from the original plasmid (pCMV5) via PCR with primers Rb18 (5′-[…]-3′) and Rb10 (5′-[…]-3′) and cloned into the pCR-Bac vector (Invitrogen, Groningen, NL).
The recombinant baculovirus was prepared by means of homologous recombination in SF9 insect cells. The expression plasmids were cotransfected with Baculo-Gold DNA (Pharmingen, Hamburg) using a standard protocol (Pharmingen, Hamburg). Wt virus-free recombinant virus supernatants were selected using plaque assay methods. After that, high-titre virus supernatants were prepared by amplifying 3 times. PDE4B1 was expressed in SF21 cells by infecting 2×10^6 cells/ml with an MOI (multiplicity of infection) between 1 and 10 in the serum-free SF900 medium (GIBCO Life Technologies, Karlsruhe, Germany). The cells were cultured at 28° C. for 48-72 hours, after which they were pelleted for 5-10 min at 1000×g and 4° C.
The SF21 insect cells were resuspended, at a concentration of approx. 10^7 cells/ml, in ice-cold (4° C.) homogenization buffer (20 mM Tris, pH 8.2, containing the following additions: 140 mM NaCl, 3.8 mM KCl, 1 mM EGTA, 1 mM MgCl2, 10 mM β-mercaptoethanol, 2 mM benzamidine, 0.4 mM Pefablock, 10 μM leupeptin, 10 μM pepstatin A, 5 μM trypsin inhibitor) and disrupted by ultrasonication. The homogenate was then centrifuged for 10 min at 1000×g and the supernatant was stored at −80° C. until subsequent use (see below). The protein content was determined by the Bradford method (BioRad, Munich) using BSA (Bovine serum albumin) as the standard.
PDE4B1 activities were measured in a 96-well platform using SPA (scintillation proximity assay) yttrium silicate beads (RPNQ1050 from GE Healthcare). In a first step the PDE activity operated hydrolysis of either [^3H] cAMP (substrate) into [^3H] 5′AMP. In a second step substrate and product were distinguished following addition of SPA yttrium silicate beads. Indeed, in the presence of zinc sulphate the linear [^3H] […] Close proximity of bound [^3H] […] The test volume was 100 μl and finally contained 20 mM Tris buffer (pH 7.4), 0.1 mg/ml of BSA, 5 mM Mg^2+, 0.5 μM cAMP (including about 50,000 cpm of [3H]cAMP) as substrate, 1 μl of the respective substance dilution in DMSO and sufficient recombinant PDE (1000×g supernatant, see above) to ensure that 10-20% of the cAMP was converted under the said experimental conditions. […] After a preincubation of 5 min at 37° C., the reaction was commenced by adding the substrate (cAMP) and the assays were incubated for a further 15 min. Reactions were terminated by adding SPA beads (50 μl). In agreement with the manufacturer's instructions, the SPA beads had previously been resuspended in water, but were then diluted 1:3 (v/v) in water. This diluted solution further contained 3 mM IBMX (isobutylmethylxanthine) to ensure a complete block of PDE activity. Once the beads were sedimented (>30 min), the MTP's (microtiter plate) were analyzed in commercially available luminescence detection devices. The corresponding IC50 values of the compounds for inhibition of PDE4B1 activity were determined from the concentration-effect curves by means of non-linear regression.
For the following compounds PDE4B1 inhibitory values [measured as −logIC50 (mol/l)] below 8 and between 8 and 9 have been determined. The numbers of the compounds correspond to the numbers of the examples.

[1] = system: bleomycin-induced lung fibrotic remodeling; conditions: mice, preventive and therapeutic protocols; cited from earlier work
[2] = system: bleomycin-induced lung fibrotic remodeling; conditions: rat, preventive and therapeutic protocols; cited from earlier work
[3] = system: bleomycin-induced pulmonary fibrosis and pulmonary hypertension; conditions: in vivo; cited from earlier work
pulmonary fibrosis = conditions: patients with pulmonary fibrosis, open-label trials; cited from earlier work

## CCOc1cc2c(cc1OC)C(c1ccc(C(=O)N3CCC(n4c(=O)c5sc(-c6ccccc6OC)cc5n(Cc5ccc(OC)c(F)c5)c4=O)CC3)cc1)=N[C@@H]1CCSC[C@H]21 [Example 19, 3-[1-({4-[(4aR,10bR)-9-ethoxy-8-methoxy-3,4,4a,10b-tetrahydro-1H-thiopyrano[4,3-c]isoquinolin-6-yl]phenyl}carbonyl)piperidin-4-yl]-1-(3-fluoro-4-methoxybenzyl)-6-(2-methoxyphenyl)thieno[3,2-d]pyrimidine-2,4(1H,3H)-dione]
Human PDE5
  IC50: 1 to 10 nM
PDE4B1
  IC50: 1 to 10 nM

## CCOc1cc2c(cc1OC)C(c1cccc(C(=O)N3CCC(n4c(=O)c5sc(-c6ccc7c(c6)OCO7)cc5n(Cc5ccc(OC)c(F)c5)c4=O)CC3)c1)=N[C@@H]1CCSC[C@H]21 [Example 20, 6-(1,3-benzodioxol-5-yl)-3-[1-({3-[(4aR,10bR)-9-ethoxy-8-methoxy-3,4,4a,10b-tetrahydro-1H-thiopyrano[4,3-c]isoquinolin-6-yl]phenyl}carbonyl)piperidin-4-yl]-1-(3-fluoro-4-methoxybenzyl)thieno[3,2-d]pyrimidine-2,4(1H,3H)-dione]
Human PDE5
  IC50: 1 to 10 nM
PDE4B1
  IC50: > 10 nM

## CCOc1cc2c(cc1OC)C(c1cccc(C(=O)N3CCC(n4c(=O)c5sc(-c6ccccc6)cc5n(Cc5cc(F)c(OC)c(F)c5)c4=O)CC3)c1)=N[C@@H]1CCSC[C@H]21 [Example 21, 1-(3,5-difluoro-4-methoxybenzyl)-3-[1-({3-[(4aR,10bR)-9-ethoxy-8-methoxy-3,4,4a,10b-tetrahydro-1H-thiopyrano[4,3-c]isoquinolin-6-yl]phenyl}carbonyl)piperidin-4-yl]-6-phenylthieno[3,2-d]pyrimidine-2,4(1H,3H)-dione]
Human PDE5
  IC50: 1 to 10 nM
PDE4B1
  IC50: > 10 nM

## O=C(Nc1c(Cl)cncc1Cl)c1ccc(OC(F)F)c(OCC2CC2)c1 [roflumilast]
[1]
  effect on bleomycin-induced lung fibrotic remodeling: alleviate bleomycin-induced lung fibrotic remodeling
[2]
  effect on bleomycin-induced lung fibrotic remodeling: alleviate bleomycin-induced lung fibrotic remodeling

## CCCc1nn(C)c2c(=O)[nH]c(-c3cc(S(=O)(=O)N4CCN(C)CC4)ccc3OCC)nc12 [sildenafil]
[3]
  effect on bleomycin-induced pulmonary fibrosis and pulmonary hypertension: attenuates bleomycin-induced pulmonary fibrosis and pulmonary hypertension
Pulmonary fibrosis
  exercise tolerance: increases exercise tolerance
  lung hemodynamic parameters (vascular resistance and ventilation/perfusion matching): improves lung hemodynamic parameters
